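Five compound concentrations were applied to cells in 96-well plates for 48 hours; endpoints were derived by simple linear interpolation of the resulting dose-response curve. GI50 = concentration required for 50% inhibition of growth. Definition used: TGI = concentration required for complete inhibition of growth.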
How the values were obtained:
Assay in all cases: NCI anticancer screen, dose series, 48 h
[1] = tested on: HCT-116 colon
[2] = tested on: HOP-92 NSCLC
[3] = tested on: OVCAR-8 ovarian
[4] = tested on: HCC-2998 colon
[5] = tested on: CCRF-CEM leukemia
[6] = tested on: EKVX NSCLC
[7] = tested on: NCI-H226 lung
[8] = tested on: OVCAR-3 ovarian
[9] = tested on: MOLT-4 leukemia
[10] = tested on: BT-549 breast
[11] = tested on: DU-145 prostate
[12] = tested on: MCF7 breast
[13] = tested on: UACC-257 melanoma
[14] = tested on: UACC-62 melanoma
[15] = tested on: MALME-3M melanoma
[16] = tested on: K-562 leukemia
[17] = tested on: ACHN renal
[18] = tested on: T-47D breast
[19] = tested on: SR leukemia
[20] = tested on: PC-3 prostate
[21] = tested on: A549 NSCLC
[22] = tested on: U251 CNS
[23] = tested on: 786-0 renal
[24] = tested on: HL-60(TB) leukemia
[25] = tested on: SK-OV-3 ovarian
[26] = tested on: M14 melanoma
[27] = tested on: LOX IMVI melanoma
[28] = tested on: A498 renal
[29] = tested on: NCI/ADR-RES ovarian
[30] = tested on: CAKI-1 renal
[31] = tested on: NCI-H23 lung
[32] = tested on: IGROV1 ovarian
[33] = tested on: OVCAR-4 ovarian
[34] = tested on: HT29 colon
[35] = tested on: MDA-MB-435
[36] = tested on: UO-31 renal
[37] = tested on: NCI-H460 lung
[38] = tested on: SN12C renal
[39] = tested on: COLO 205 colon
[40] = tested on: SF-539 CNS
[41] = tested on: SK-MEL-2 melanoma
[42] = tested on: RXF 393 renal
[43] = tested on: OVCAR-5 ovarian
[44] = tested on: SF-268 CNS
[45] = tested on: SK-MEL-28 melanoma
[46] = tested on: HCT-15 colon
[47] = tested on: SF-295 CNS
[48] = tested on: SNB-75 CNS
[49] = tested on: SW-620 colon
[50] = tested on: SK-MEL-5 melanoma
[51] = tested on: TK-10 renal
[52] = tested on: KM12 colon
[53] = tested on: HOP-62 NSCLC
[54] = tested on: NCI-H522 lung
[55] = tested on: RPMI-8226 leukemia
[56] = tested on: SNB-19 CNS
[57] = tested on: HS 578T breast
[58] = tested on: MDA-MB-231 breast

## OC1(c2ccc(Cl)c(C(F)(F)F)c2)CCN(CCCC(c2ccc(F)cc2)c2ccc(F)cc2)CC1
[1]
  GI50: 734 nM
  TGI: 1410 nM
[2]
  GI50: 448 nM
  TGI: 1170 nM
[3]
  GI50: 823 nM
  TGI: 1530 nM
[4]
  GI50: 762 nM
  TGI: 1430 nM
[5]
  GI50: 1040 nM
  TGI: 2630 nM
[6]
  GI50: 1470 nM
  TGI: 6200 nM
[7]
  GI50: 857 nM
  TGI: 1810 nM
[8]
  GI50: 888 nM
  TGI: 1630 nM
[9]
  GI50: 1030 nM
  TGI: 2380 nM
[10]
  GI50: 1090 nM
  TGI: 2100 nM
[11]
  GI50: 897 nM
  TGI: 1660 nM
[12]
  GI50: 796 nM
  TGI: 1470 nM
[13]
  GI50: 826 nM
  TGI: 1510 nM
[14]
  GI50: 810 nM
  TGI: 1500 nM
[15]
  GI50: 934 nM
  TGI: 1740 nM
[16]
  GI50: 781 nM
  TGI: 1750 nM
[17]
  GI50: 870 nM
  TGI: 1630 nM
[18]
  GI50: 941 nM
  TGI: 1840 nM
[19]
  GI50: 831 nM
  TGI: 2000 nM
[20]
  GI50: 857 nM
  TGI: 2100 nM
[21]
  GI50: 837 nM
  TGI: 1580 nM
[22]
  GI50: 784 nM
  TGI: 1450 nM
[23]
  GI50: 832 nM
  TGI: 1520 nM
[24]
  GI50: 1010 nM
  TGI: 2020 nM
[25]
  GI50: 1310 nM
  TGI: 3170 nM
[26]
  GI50: 828 nM
  TGI: 1520 nM
[27]
  GI50: 821 nM
  TGI: 1520 nM
[28]
  GI50: 515 nM
  TGI: 1120 nM
[29]
  GI50: 863 nM
  TGI: 1770 nM
[30]
  GI50: 922 nM
  TGI: 1900 nM
[31]
  GI50: 830 nM
  TGI: 1620 nM
[32]
  GI50: 975 nM
  TGI: 2050 nM
[33]
  GI50: 804 nM
  TGI: 1820 nM
[34]
  GI50: 739 nM
  TGI: 1470 nM
[35]
  GI50: 819 nM
  TGI: 1530 nM
[36]
  GI50: 714 nM
  TGI: 2720 nM
[37]
  GI50: 1230 nM
  TGI: 9050 nM
[38]
  GI50: 831 nM
  TGI: 1540 nM
[39]
  GI50: 856 nM
  TGI: 1570 nM
[40]
  GI50: 943 nM
  TGI: 1690 nM
[41]
  GI50: 955 nM
  TGI: 1760 nM
[42]
  GI50: 638 nM
  TGI: 1270 nM
[43]
  GI50: 868 nM
  TGI: 1770 nM
[44]
  GI50: 894 nM
  TGI: 1880 nM
[45]
  GI50: 889 nM
  TGI: 1580 nM
[46]
  GI50: 888 nM
  TGI: 1750 nM
[47]
  GI50: 833 nM
  TGI: 1630 nM
[48]
  GI50: 713 nM
  TGI: 1430 nM
[49]
  GI50: 760 nM
  TGI: 1430 nM
[50]
  GI50: 797 nM
  TGI: 1470 nM
[51]
  GI50: 890 nM
  TGI: 1690 nM
[52]
  GI50: 864 nM
  TGI: 1620 nM
[53]
  GI50: 945 nM
  TGI: 1700 nM
[54]
  GI50: 902 nM
  TGI: 1790 nM
[55]
  GI50: 1100 nM
  TGI: 2670 nM
[56]
  GI50: 1130 nM
  TGI: 3860 nM
[57]
  GI50: 857 nM
  TGI: 1930 nM
[58]
  GI50: 795 nM
  TGI: 1520 nM

## O=C1c2cccc(Oc3ccccc3)c2C(=O)c2cccc(Oc3ccccc3)c21
[1]
  GI50: > 100000 nM
  TGI: > 100000 nM
[2]
  GI50: 8980 nM
  TGI: 51200 nM
[3]
  GI50: > 100000 nM
  TGI: > 100000 nM
[4]
  GI50: > 100000 nM
  TGI: > 100000 nM
[5]
  GI50: 7140 nM
  TGI: 30300 nM
[6]
  GI50: > 100000 nM
  TGI: > 100000 nM
[7]
  GI50: > 100000 nM
  TGI: > 100000 nM
[8]
  GI50: > 100000 nM
  TGI: > 100000 nM
[9]
  GI50: > 100000 nM
  TGI: > 100000 nM
[10]
  GI50: 22900 nM
  TGI: > 100000 nM
[11]
  GI50: > 100000 nM
  TGI: > 100000 nM
[12]
  GI50: > 100000 nM
  TGI: > 100000 nM
[13]
  GI50: > 100000 nM
  TGI: > 100000 nM
[14]
  GI50: > 100000 nM
  TGI: > 100000 nM
[15]
  GI50: > 100000 nM
  TGI: > 100000 nM
[16]
  GI50: > 100000 nM
  TGI: > 100000 nM
[17]
  GI50: > 100000 nM
  TGI: > 100000 nM
[18]
  GI50: > 100000 nM
  TGI: > 100000 nM
[19]
  GI50: 77500 nM
  TGI: > 100000 nM
[20]
  GI50: > 100000 nM
  TGI: > 100000 nM
[21]
  GI50: > 100000 nM
  TGI: > 100000 nM
[22]
  GI50: 33300 nM
  TGI: > 100000 nM
[23]
  GI50: 27500 nM
  TGI: > 100000 nM
[24]
  GI50: > 100000 nM
  TGI: > 100000 nM
[25]
  GI50: 9390 nM
  TGI: > 100000 nM
[26]
  GI50: > 100000 nM
  TGI: > 100000 nM
[27]
  GI50: > 100000 nM
  TGI: > 100000 nM
[28]
  GI50: > 100000 nM
  TGI: > 100000 nM
[29]
  GI50: > 100000 nM
  TGI: > 100000 nM
[30]
  GI50: > 100000 nM
  TGI: > 100000 nM
[31]
  GI50: > 100000 nM
  TGI: > 100000 nM
[32]
  GI50: > 100000 nM
  TGI: > 100000 nM
[34]
  GI50: > 100000 nM
  TGI: > 100000 nM
[35]
  GI50: > 100000 nM
  TGI: > 100000 nM
[36]
  GI50: > 100000 nM
  TGI: > 100000 nM
[37]
  GI50: > 100000 nM
  TGI: > 100000 nM
[38]
  GI50: > 100000 nM
  TGI: > 100000 nM
[39]
  GI50: > 100000 nM
  TGI: > 100000 nM
[40]
  GI50: 41500 nM
  TGI: > 100000 nM
[41]
  GI50: 96700 nM
  TGI: > 100000 nM
[42]
  GI50: 4700 nM
  TGI: 36400 nM
[43]
  GI50: > 100000 nM
  TGI: > 100000 nM
[44]
  GI50: 39800 nM
  TGI: > 100000 nM
[45]
  GI50: > 100000 nM
  TGI: > 100000 nM
[46]
  GI50: > 100000 nM
  TGI: > 100000 nM
[47]
  GI50: 22200 nM
  TGI: > 100000 nM
[48]
  GI50: 9130 nM
  TGI: 42700 nM
[49]
  GI50: > 100000 nM
  TGI: > 100000 nM
[50]
  GI50: > 100000 nM
  TGI: > 100000 nM
[51]
  GI50: > 100000 nM
  TGI: > 100000 nM
[52]
  GI50: > 100000 nM
  TGI: > 100000 nM
[53]
  GI50: 5050 nM
  TGI: > 100000 nM
[54]
  GI50: > 100000 nM
  TGI: > 100000 nM
[55]
  GI50: > 100000 nM
  TGI: > 100000 nM
[56]
  GI50: 9560 nM
  TGI: 72100 nM
[57]
  GI50: 7680 nM
  TGI: > 100000 nM
[58]
  GI50: 44800 nM
  TGI: > 100000 nM

Reference: PubChem BioAssay (NCI)
